Test results reported in patent US20160221977A1, “ANT[…]-LACTONES, AND METHODS OF IDENTIFICATION, MANUFACTURE AND USE” (priority 2014, published 2016).
≈ marks a conversion by molar mass, not a printed value.

Columns and labels:
[1] = system: M. smegmatis MC2155; assay: toxicity to M. smegmatis (growth suppression, MIC); assay type: cell-based; conditions: for suppression of growth of M. smegmatis: M. smegmatis MC2155
Method: To determine if the results in the S. coelicolor based assay had relevance to Mycobacteria, all fourteen compounds were tested for toxicity to M. smegmatis MC2155, a surrogate of M. tuberculosis. […] Three of these inhibitory compounds were trans-disubstituted β-lactones with unbranched alkyl substituents on both the α- and β-carbons (β-lactones 2-4). For these molecules, there was a positive correlation between the length of the alkyl group on the α-carbon and antibacterial activity. […] The compounds were subsequently shown to be inhibitors of ClpP in vitro. In Mycobacteria, ClpP inhibition is associated with killing. Previous reports of ClpP inhibition generally described suppression of virulence in pathogenic bacteria (S. aureus and L. monocytogenes).

[2] = system: S. coelicolor strain with the neo reporter gene; assay: neo reporter strain assay (kanamycin resistance under PopR-dependent promoter); assay type: cell-based, S. coelicolor M145; conditions: DNAgar, 10 μg/mL kanamycin, optical density at 48 hrs
[3] = system: M. tuberculosis H37Rv; assay: toxicity to M. tuberculosis (growth inhibition, MIC); assay type: cell-based

SMILES | suppression of growth of M. smegmatis [1] | MIC ([1]; Mycolicibacterium smegmatis, MC2155, M. smegmatis) [µg/mL] | growth of reporter strain on media supplemented with kanamycin [2] | inhibition of growth of M. tuberculosis H37Rv [3] | MIC ([3]; Mycobacterium tuberculosis, H37RV, M. tuberculosis) [µg/mL]
CCCC1OC(=O)C1Cc1ccccc1 (stereo not drawn) [Compound 7] | suppressed the growth of M. smegmatis | 10 (≈ 49 µM) | enabled the reporter strain to grow on media supplemented with kanamycin | inhibited growth of M. tuberculosis H37Rv | 28 (≈ 137 µM)
CCCCCCCC1C(=O)OC1CCC (stereo not drawn) [Compound 3] | suppressed the growth of M. smegmatis |  | enabled the reporter strain to grow on media supplemented with kanamycin |  | 
C=CCCCCCCCC1C(=O)OC1CCC (stereo not drawn) [Compound 4] | suppressed the growth of M. smegmatis |  | enabled the reporter strain to grow on media supplemented with kanamycin | inhibited growth of M. tuberculosis H37Rv | 
CCCCCC1C(=O)OC1CCC (stereo not drawn) [Compound 2] | suppressed the growth of M. smegmatis |  | enabled the reporter strain to grow on media supplemented with kanamycin |  | 
